The values that follow are results of earlier work, collected in US20170245495A1, “CHEMICAL LURE FOR ASIAN CITRUS PSYLLID” (The Regents of the University of California, priority 2014, published 2017).

Read-outs that look alike come from different tables or passages of the source.

The test system of this series is D. citri. Particulars: Mann et al. 2012, Patt and Setamou 2010.

As to `C=CC(C)(O)CCC=C(C)C` (stereo not shown) [linalool], the “attraction of D. citri (literature)” value is given as “attractive to D. citri”.
Take `COC(=O)c1ccccc1O` [methyl salicylate]: the “attraction of D. citri (literature)” value is “implicated as D. citri attractants”. The “attraction of D. citri (literature)” value (listed as MeSA) is “attractant for D. citri”.
With `C=C/C(C)=C/CC=C(C)C` [β-ocimene, (E)-β-ocimene], the “attraction of D. citri (literature)” value is on record as “attractive to D. citri”.
